The subject of data set [1] is mRNA transcript for the ApoB gene. The data set can be described thus: Rhesus monkey in vivo efficacy: serum LDL-C as surrogate marker of ApoB mRNA reduction. Set-up: species or system Macaca mulatta (rhesus) monkeys. As to conditions: RDVs containing the compound and ApoB siRNA; 1 mg/kilogram siRNA intravenous; 2-12 days post administration; FIG. 6. As to the method: LNPs utilizing compound 34 in the nominal compositions described above, were evaluated for in vivo efficacy in male or female Macaca mulatta (rhesus) monkeys. The siRNA targets the mRNA transcript for the ApoB gene (Accession # XM 001097404). […] The RDVs (containing siRNA) in PBS vehicle were administered by intravenous injection in the saphenous vein at an injection rate of 20 mL/minute to a dose level of 1 mg/kilogram siRNA. The injection volumes were from 1.9 to 2.1 mL/kilogram and monkeys ranged in weight from 2.5 to 4.5 kilograms. The RDV or PBS control were administered to three monkeys. At multiple days post dose, 1 mL blood samples were drawn from the femoral artery for serum chemistry analysis. Monkeys were fasted overnight prior to blood draws. As a measure of efficacy, LDL-C was monitored as a downstream surrogate marker of ApoB mRNA reduction. At 2-12 days post systemic administration of RDVs containing compound 34, serum levels of LDL-C were reduced to less than 30% of pre-dose levels (FIG. 6).

Data set [2] deals with mRNA transcript for the firefly (Photinus pyralis) luciferase gene. The data set can be described thus: In vivo efficacy in luciferase mouse model (LNP/RDV with Luc siRNA). The note with it: for inhibition at 0.3 mg/kg: Mus musculus, LNPs prepared from the compound with Luc siRNA, 0.3 mg Kg^-1, tail vein, imaged 48 hours post dose, relative to pre-dose luminescence, read-out: Average % Inhibition of Bioluminescence. How it is done:
LNPs utilizing the compounds of the instant invention, in the nominal compositions described immediately above, were evaluated for in vivo efficacy and induction of inflammatory cytokines in a luciferase mouse model. The siRNA targets the mRNA transcript for the firefly (Photinus pyralis) luciferase gene (Accession # M15077). […] The in vivo luciferase model employs a transgenic mouse in which the firefly luciferase coding sequence is present in all cells. ROSA26-LoxP-Stop-LoxP-Luc (LSL-Luc) transgenic mice licensed from the Dana Farber Cancer Institute are induced to express the Luciferase gene by first removing the LSL sequence with a recombinant Ad-Cre virus (Vector Biolabs). Due to the organo-tropic nature of the virus, expression is limited to the liver when delivered via tail vein injection. Luciferase expression levels in liver are quantitated by measuring light output, using an IVIS imager (Xenogen) following administration of the luciferin substrate (Caliper Life Sciences). Pre-dose luminescence levels are measured prior to administration of the RDVs. Luciferin in PBS (15 mg/mL) is intraperitoneally (IP) injected in a volume of 150 uL. After a four minute incubation period mice are anesthetized with isoflurane and placed in the IVIS imager. The RDVs (containing siRNA) in PBS vehicle were tail vein injected n a volume of 0.2 mL. Final dose levels ranged from 0.3 to 3 mg/kg siRNA. PBS vehicle alone was dosed as a control. Three hours post dose, mice were bled retro-orbitally to obtain plasma for cytokine analysis. Mice were imaged 48 hours post dose using the method described above. Changes in luciferin light output directly correlate with luciferase mRNA levels and represent an indirect measure of luciferase siRNA activity. In vivo efficacy results are expressed as % inhibition of luminescence relative to pre-dose luminescence levels. Plasma cytokine levels were determined using the SearchLight multiplexed cytokine chemiluminescent array (Pierce/Thermo). Systemic administration of the luciferase siRNA RDVs decreased luciferase expression in a dose dependant manner. […]

Data set [3] can be described thus: Rat in vivo tolerability: serum ALT and AST after LNP dosing. As to conditions: Sprague-Dawley female rats; RDV with ApoB siRNA; tail vein; 24 hours after dosing; FIG. 4. As to the method:
Six hours post dose, food is removed from the cages. Animal necropsy is performed 24 hours after LNP dosing. Rats are anesthetized under isoflurane for 5 minutes, then maintained under anesthesia by placing them in nose cones continuing the delivery of isoflurane until ex-sanguination is completed. Blood is collected from the vena cava using a 23 gauge butterfly venipuncture set and aliquoted to serum separator vacutainers for serum chemistry analysis. Punches of the excised caudate liver lobe are taken and placed in RNALater (Ambion) for mRNA analysis. Preserved liver tissue was homogenized and total RNA isolated using a Qiagen bead mill and the Qiagen miRNA-Easy RNA isolation kit following the manufacturer's instructions. Liver ApoB mRNA levels were determined by quantitative RT-PCR. Message was amplified from purified RNA utilizing a rat ApoB commercial probe set (Applied Biosystems Cat # RN01499054_ml). The PCR reaction was performed on an ABI 7500 instrument with a 96-well Fast Block. The ApoB mRNA level is normalized to the housekeeping PPIB (NM 011149) mRNA. PPIB mRNA levels were determined by RT-PCR using a commercial probe set (Applied Biosystems Cat. No. Mm00478295_ml). Results are expressed as a ratio of ApoB mRNA/PPIB mRNA. All mRNA data is expressed relative to the PBS control dose. […]

A word on the inhibition: it is the percentage by which the read-out fell short of the control.

As to `CCC/C=C\CCCCCCCOC(CN1CCCC1)OCCCCCCCC/C=C\C/C=C\CCCCC` (centres unmarked) [Compound 34, 1-{2-[(8Z)-dodec-8-en-1-yloxy]-2-[(9Z,12Z)-octadeca-9,12-dien-1-yloxy]ethyl}pyrrolidine], the “Serum levels of LDL-C” value in data set [1] is “less than 30 % of pre-dose levels”.
`CCCCC/C=C\C/C=C\CCCCCCCCOC(CN(C)C)OCCCCCCCC/C=C\C/C=C\CCCCC` [Compound 2, N,N-dimethyl-2,2-bis[(9Z,12Z)-octadeca-9,12-dien-1-yloxy]ethanamine]: the inhibition at 0.3 mg/kg in data set [2] stood at 64%. Also, in data set [2] (mice dosed with RDVs containing the compound and Luc siRNA, Table 1), the “Efficacy compared with RDV containing octyl-CLinDMA cationic lipid, Compound 4” value is “Greater efficacy”.
Regarding `CCCCC/C=C\C/C=C\CCCCCCCCOCC(CN(C)C)OCCCCCCCCO[C@H]1CC[C@@]2(C)C(=CC[C@H]3[C@@H]4CC[C@H]([C@H](C)CCCC(C)C)[C@@]4(C)CC[C@@H]32)C1` (some centres unmarked) [Compound 4, S-Octyl CLinDMA, reference compound], the inhibition at 0.3 mg/kg in data set [2] is 55%.
Consider `CCCCC/C=C\C/C=C\CCCCCCCCOC(CN(C)C)OCCCCCCCC` (centres unmarked) [Compound 31, N,N-dimethyl-2-[(9Z,12Z)-octadeca-9,12-dien-1-yloxy]-2-(octyloxy)ethanamine], for which the “Tolerability (serum ALT and AST) compared with RDV containing DLinKC2DMA cationic lipid 64” value in data set [3] was “better tolerability”.

The values above are taken from patent US9670487B2, “Cationic lipids for oligonucleotide delivery” (SIRNA THERAPEUTICS, INC., priority 2010, dated 2017).
